From US20100179158A1, “INHIBITORS OF CYCLIC AMP PHOSPHODIESTERASES” (priority 2007, published 2010)

Key:
PDE4D2 = biological target: T1, PDE4D2 (Homo sapiens, UniProt Q08499); experiment: cAMP assay in yeast strain expressing PDE4D2; format: cell-based
T1 construct: targets used in the assays are full-length proteins (as opposed to simply the catalytic domain); expressed in transfected cells; host or cells: Schizosaccharomyces pombe

PDE4A1 [1] = biological target: T2, PDE4A1 (Mus musculus, UniProt O89084); experiment: cAMP assay in yeast strain expressing PDE4A1; format: cell-based, murine
T2 construct: targets used in the assays are full-length proteins (as opposed to simply the catalytic domain); expressed in transfected cells; host or cells: Schizosaccharomyces pombe, gene integrated at the cgs2 locus
T2 sequence (O89084 1-610 isoform O89084-2): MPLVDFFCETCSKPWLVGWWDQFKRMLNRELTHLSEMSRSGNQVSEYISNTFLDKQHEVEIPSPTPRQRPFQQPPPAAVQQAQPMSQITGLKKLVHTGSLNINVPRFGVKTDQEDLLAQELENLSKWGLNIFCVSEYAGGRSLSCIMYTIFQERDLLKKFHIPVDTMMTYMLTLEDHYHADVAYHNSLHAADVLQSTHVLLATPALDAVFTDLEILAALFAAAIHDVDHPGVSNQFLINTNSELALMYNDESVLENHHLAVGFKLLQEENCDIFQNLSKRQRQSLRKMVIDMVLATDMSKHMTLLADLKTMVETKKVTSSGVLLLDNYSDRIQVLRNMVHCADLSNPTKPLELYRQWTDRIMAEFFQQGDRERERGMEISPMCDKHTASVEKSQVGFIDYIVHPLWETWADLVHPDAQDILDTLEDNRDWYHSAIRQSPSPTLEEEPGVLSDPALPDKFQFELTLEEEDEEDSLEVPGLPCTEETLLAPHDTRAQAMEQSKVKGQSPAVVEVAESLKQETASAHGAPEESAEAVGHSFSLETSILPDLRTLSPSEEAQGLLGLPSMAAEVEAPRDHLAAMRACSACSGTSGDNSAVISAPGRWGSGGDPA

PDE4D3 [2] = biological target: T3, PDE4D3 (Homo sapiens, UniProt Q08499); experiment: Fission yeast 5FOA growth assay, strain expressing PDE4D3; format: cell-based; settings: 2 uM compound, 5FOA growth screen
T3 construct: targets used in the assays are full-length proteins (as opposed to simply the catalytic domain); expressed in transfected cells; host or cells: Schizosaccharomyces pombe, gene integrated at the cgs2 locus
Method: Cells were pregrown in EMM medium [MP Biomedicals (Solon, OH), 3% glucose, filter-sterilized to avoid carmelization, which would introduce variability into the optical density of the medium] containing from 0 mM to 2.5 mM cAMP (or either 0.5 mM or 1.0 mM cGMP). This was to repress expression of the fbp1-ura4 reporter prior to exposure of cells to 5FOA medium. Cells were grown at 30° C. to exponential phase (approximately 10^7 cells/ml). Cells were collected by centrifugation and resuspended in 5FOA medium, and 25 μl were transferred to 384-well microtiter dishes (untreated, with flat clear bottoms) that had been pre-filled with 25 μl 5FOA medium and pre-pinned with 100 nl of compounds (stock solutions were generally 10 mM). Starting cell concentrations ranged from 0.5×10^5 to 4×10^5 cells/ml depending on the screening strain. […] Other positive control dishes contained 5 mM cAMP in the 5FOA medium for PDEs that lack appropriate control compounds. Cultures were grown for 48 hours at 30° C., sealed in an airtight container with moist paper towels to prevent evaporation. Optical densities (OD600) of cultures were measured using a microplate reader. Bioinformatic analysis of the results to determine composite Z scores was performed as previously described (1, 3).

PDE4B3 = biological target: T4, PDE4B3 (Mus musculus, UniProt Q8VBU5); experiment: cAMP assay in yeast strain expressing PDE4B3; format: cell-based, murine
T4 construct: targets used in the assays are full-length proteins (as opposed to simply the catalytic domain); expressed in transfected cells; host or cells: Schizosaccharomyces pombe, gene integrated at the cgs2 locus
T4 sequence (Q8VBU5 1-721): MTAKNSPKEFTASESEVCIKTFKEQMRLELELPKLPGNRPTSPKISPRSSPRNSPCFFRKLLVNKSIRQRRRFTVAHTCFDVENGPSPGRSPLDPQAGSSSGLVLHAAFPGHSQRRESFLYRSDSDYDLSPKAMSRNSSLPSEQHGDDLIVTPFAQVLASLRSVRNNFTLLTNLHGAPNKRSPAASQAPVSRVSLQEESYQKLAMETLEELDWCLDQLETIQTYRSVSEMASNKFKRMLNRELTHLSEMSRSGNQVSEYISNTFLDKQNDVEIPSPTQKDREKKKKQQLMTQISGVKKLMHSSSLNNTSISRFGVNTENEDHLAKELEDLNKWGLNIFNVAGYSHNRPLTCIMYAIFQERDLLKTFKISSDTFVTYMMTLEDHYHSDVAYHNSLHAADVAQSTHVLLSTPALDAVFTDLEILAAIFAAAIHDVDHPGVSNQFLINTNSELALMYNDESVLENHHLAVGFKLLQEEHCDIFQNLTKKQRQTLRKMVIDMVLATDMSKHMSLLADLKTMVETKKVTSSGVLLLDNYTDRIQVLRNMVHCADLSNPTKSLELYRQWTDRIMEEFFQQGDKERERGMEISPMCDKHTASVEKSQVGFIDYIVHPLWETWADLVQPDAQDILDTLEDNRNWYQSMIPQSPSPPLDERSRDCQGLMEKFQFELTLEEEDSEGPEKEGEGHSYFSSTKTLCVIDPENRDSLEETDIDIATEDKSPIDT

PDE4A1 [3] = biological target: T2, PDE4A1; experiment: IC50 on PDE4A1; format: biochemical, murine; settings: read-out: IC50, PDE 4A1
PDE4D3 [4] = biological target: T3, PDE4D3; experiment: cAMP assay in yeast strain expressing PDE4D3; format: cell-based

T3 sequence (Q08499 1-673 isoform Q08499-2): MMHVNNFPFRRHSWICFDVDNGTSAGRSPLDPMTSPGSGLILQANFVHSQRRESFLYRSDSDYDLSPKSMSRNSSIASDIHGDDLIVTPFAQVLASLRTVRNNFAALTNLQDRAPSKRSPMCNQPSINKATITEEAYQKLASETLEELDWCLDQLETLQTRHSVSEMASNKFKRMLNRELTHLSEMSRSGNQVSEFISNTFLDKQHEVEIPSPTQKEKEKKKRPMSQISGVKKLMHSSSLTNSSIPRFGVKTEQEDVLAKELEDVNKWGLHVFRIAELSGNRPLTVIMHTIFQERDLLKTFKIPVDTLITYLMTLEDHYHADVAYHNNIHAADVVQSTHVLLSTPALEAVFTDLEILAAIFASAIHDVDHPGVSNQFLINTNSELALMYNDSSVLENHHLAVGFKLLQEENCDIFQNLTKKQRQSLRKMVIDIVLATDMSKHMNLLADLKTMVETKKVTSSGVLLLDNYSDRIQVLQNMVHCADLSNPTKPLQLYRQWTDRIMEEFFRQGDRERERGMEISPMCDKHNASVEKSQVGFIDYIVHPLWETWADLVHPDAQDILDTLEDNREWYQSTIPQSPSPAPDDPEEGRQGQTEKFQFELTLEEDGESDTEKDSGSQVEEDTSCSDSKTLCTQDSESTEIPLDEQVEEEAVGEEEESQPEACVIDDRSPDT
T1 sequence (Q08499 303-809): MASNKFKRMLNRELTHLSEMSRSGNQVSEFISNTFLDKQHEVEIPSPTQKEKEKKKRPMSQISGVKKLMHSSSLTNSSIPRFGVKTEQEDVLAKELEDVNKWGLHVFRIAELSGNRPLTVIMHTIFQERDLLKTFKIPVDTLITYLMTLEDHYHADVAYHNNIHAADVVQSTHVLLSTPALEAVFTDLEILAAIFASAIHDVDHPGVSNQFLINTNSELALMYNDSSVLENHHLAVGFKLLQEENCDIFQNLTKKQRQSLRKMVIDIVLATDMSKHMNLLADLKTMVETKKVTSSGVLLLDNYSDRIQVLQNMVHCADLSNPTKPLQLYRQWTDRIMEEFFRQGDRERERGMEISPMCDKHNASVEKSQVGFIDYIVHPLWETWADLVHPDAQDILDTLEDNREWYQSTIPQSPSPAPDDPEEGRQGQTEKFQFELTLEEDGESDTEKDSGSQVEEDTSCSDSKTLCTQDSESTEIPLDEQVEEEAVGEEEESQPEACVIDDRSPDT

cAMP Response (% rolipram), PDE 4D2 (PDE4D2) | cAMP Response (% rolipram), PDE 4A1 (PDE4A1 [1]) [% rolipram] | 2 Assay (2 uM), PDE 4D3 (PDE4D3 [2]) | cAMP Response (% rolipram), PDE 4B3 (PDE4B3) [% rolipram] | IC50 (PDE4A1 [3]) [nM] | cAMP Response (% rolipram), PDE 4D3 (PDE4D3 [4]) [% rolipram] | Compound
ND ND ND 11.00 ND % rolipram | 78.00 | 0.00 | 71.00 | 100 | 8.00 | COC(=O)C1=C(C)N(c2ccccc2Cl)C(=O)/C1=C\c1cccs1 [Compound 27]
– | – | – | – | 650 | – | Cc1ccc2c(c1)c1nc3ccccc3nc1n2C(C)C [Compound 41]
ND ND ND 34.00 ND % rolipram | 54.00 | 42.32 | 51.00 | – | 12.00 | COC(=O)C1=C(C)N(C2CCCCC2)C(=O)/C1=C\c1cccs1 [Compound 22]
